Assay results published in patent US10294248B2, “Beta-lactamase inhibitors” (VenatoRx Pharmaceuticals, Inc., priority 2013, dated 2019).

Tests used:
[1] = molecular target: T1, OXA-1 β-lactamase (Class D oxacillinase) (Escherichia coli, UniProt P13661); assay: β-Lactamase inhibition, OXA-1; assay type: biochemical; details: nitrocefin 100 μM, 486 nm; 15 min preincubation at 37° C., PBS pH 7.4
T1 construct: made in house; host or cells: E. coli BL21(DE3)
Method: (§1) For SHV-5, Kpc-2, p99AmpC and OXA-1 β-lactamases, E. coli BL21(DE3) bacterial cells carrying expression plasmids (expressed as native untagged proteins) for the individual β-lactamases were grown in 1 L of Superbroth (Teknova Inc. Hollister, Calif.) supplemented with 100 μg/ml kanamycin selection and 1×5052 (0.5% glycerol, 0.05% glucose and 0.2% α-lactose) at 35° C. for 18-20 hours. Cells were harvested by centrifugation (4,000×g, 4° C., 20 min), resuspended in 50 ml of 10 mM HEPES pH 7.5 ( 1/20 of the initial volume). The cells were lysed by sonication (5 pulses of 45 seconds) at 45 W on ice. The lysates were clarified by centrifugation at 10,000×g for 40 minutes at 4° C. Samples were diluted 5-fold in 50 mM sodium acetate pH 5.0, stored overnight at 4° C., after which they were centrifuged at 10,000×g for 30 minutes to clarify, and filtered through 0.45 μm filters. The samples were loaded onto a 5 ml Capto S sepharose cation exchange column (GE Healthcare) pre-equilibrated with 50 mM sodium acetate pH 5.0. The column was washed with 5 column volumes of 50 mM sodium acetate pH 5.0 to wash out unbound protein and a linear gradient of NaCl (0 to 500 mM) was used to elute the protein (over 16 CV) from the column. Fractions were assayed for β-lactamase activity using Centa (Calbiochem, Gibbstown, N.J.) or Nitrocefin (EMD Millipore chemicals, Darmstadt, Germany) as a reporter β-lactamase substrate for activity in the isolated fractions. Active fractions were pooled, concentrated and further purified by gel filtration chromatography on a Superdex 75 prep grade gel filtration column (GE Healthcare, Piscataway, N.J.) pre-equilibrated in 50 mM Hepes pH 7.5, 150 mM NaCl. Active fractions were pooled concentrated, quantitated by BCA protein determination (Thermo Scientific, Rockford, Ill.), dialyzed into PBS and frozen at −80° C. in 20% glycerol until use.
(§2) An equal volume of diluted enzyme stock was added, and the plates were incubated at 37° C. for 15 min. Nitrocefin was used as substrate for p99 AmpC, VIM-2 and OXA-1 and dispensed into each well at a final concentration of 100 μM. Absorbance at 486 nm was immediately monitored for 10 min using a Biotek Powerwave XS2 microplate spectrophotometer using the GEN5 software package (Biotek Instruments, Winooski Vt.). In an analogous fashion, imipenem was used as substrate for Kpc-2 and Cefotaxime was used for SHV-5, while changes in absorbance upon hydrolysis of the β-lactam ring were monitored at 300 nm and 260 nm respectively in UV-transparent 96-well microtiter assay plates. Maximum rates of hydrolysis were compared to those in control wells (without inhibitors), and percentages of enzyme inhibition were calculated for each concentration of inhibitor. The concentration of inhibitor needed to reduce the initial rate of hydrolysis of substrate by 50% (IC50) was calculated as the residual activity of β-lactamase at 486 nm using GraFit version 7 kinetics software package (Erithacus Software, Surrey, UK).
(§3) Using the methodology described above, examples of the current invention were evaluated for their ability to inhibit β-lactamase enzymes from all four Ambler classifications (A through D). […] NT=Not tested.

[2] = test system: P. aeruginosa Ps296 expressing VIM-2; assay: Broth microdilution MIC, P. aeruginosa Ps296 VIM-2; assay type: cell-based; details: fixed 4 μg/mL meropenem; CAMHB, 16-20 hours at 37° C.
Description: (§4) To determine the ability of test compounds to potentiate the inhibition of the growth of bacterial strains that produce beta-lactamase enzymes, classic cell based broth microdilution MIC assays were employed. Six bacteria strains producing beta-lactamase enzymes were used: E. coli expressing the Class A Extended Spectrum Beta-Lactamase (ESBL) CTX-M-15, E. cloacae expressing the Class C P99, K. pneumoniae expressing the Class A carbapenemase KPC-3, P. aeruginosa expressing the Class B carbapenemase VIM-2, K. pneumoniae expressing the class A carbapenemase KPC-2 and the class B carbapenemase VIM-4, and S. aureus producing the Class A penicillinase PC-1. The assay was conducted in Cation Adjusted Mueller Hinton Broth (CAMHB, BD #212322, BD Diagnostic Systems, Sparks, Md.). Bacteria strains were grown for 3-5 hours in CAMBH broth. Test compounds (Examples 1-30) were added to a microtiter plate in 2-fold serial dilutions in CAMHB in a final concentration range of 32 μg/mL to 0.25 μg/ml. An overlay of CAMHB containing a Beta-lactam was added to the compounds at a final static concentration of 4 μg/ml. […] In addition to the titration of test compounds the MICs of a panel of control beta-lactams is also tested to ensure the strains are behaving consistently from test to test. Once the test compound and antibiotics are added the plates can be inoculated according to CLSI broth microdilution method. After inoculation the plates are incubated for 16-20 hours at 37° C. then the Minimal Inhibitory Concentration (MIC) of the test compound is determined visually.
(§5) Using the methodology described above, examples of the current invention were evaluated for their ability to inhibit the growth of β-lactamase-producing bacteria in the presence of a β-lactam antibiotic.
(§6) Using the methodology described above in EXAMPLE III, exemplary compounds for Formula I or Formula Ia were evaluated for their ability to inhibit the growth of β-lactamase producing bacteria in the presence of a β-lactam antibiotic.

[3] = molecular target: T2, VIM-2 metallo-β-lactamase (Class B) (Pseudomonas aeruginosa, UniProt Q9K2N0); assay: β-Lactamase inhibition, VIM-2; assay type: biochemical; details: nitrocefin 100 μM, 486 nm; 15 min preincubation at 37° C., PBS pH 7.4
T2 construct: made in house; host or cells: E. coli BL21(DE3)
Method: For Vim-2 metallo β-lactamase, the procedure was identical with the following exceptions, first the protein was not pH adjusted to pH 5 with 50 mM sodium acetate, second, the chromatography step was changed to a 5 ml Q sepharose anion exchange column pre-equilibrated with 50 mM Hepes pH 7.5, and elution of the protein was achieved by a linear gradient of NaCl (0-600 mM). Finally, the VIM-2 purification required a second run (3rd step) on the Q sepharose anion exchange column to achieve acceptable purity (>90%).
as §2, §3

[4] = molecular target: T3, p99 AmpC β-lactamase (Class C) (Enterobacter cloacae, UniProt P05364); assay: β-Lactamase inhibition, p99 AmpC; assay type: biochemical
T3 construct: made in house; host or cells: E. coli BL21(DE3)
Method: as §1, §2, §3

[5] = test system: K. pneumoniae A-1797 expressing KPC-2 and VIM-4; assay: Broth microdilution MIC, K. pneumoniae A-1797 KPC-2/VIM-4; assay type: cell-based; details: fixed 4 μg/mL meropenem; CAMHB, 16-20 hours at 37° C.
Description: as §4, §5, §6

[6] = test system: K. pneumoniae 156319 expressing KPC-3; assay: Broth microdilution MIC, K. pneumoniae 156319 KPC-3; assay type: cell-based; details: fixed 4 μg/mL meropenem; CAMHB, 16-20 hours at 37° C.
Description: as §4, §5, §6

[7] = test system: E. coli ESBL4 expressing CTX-M-15; assay: Broth microdilution MIC, E. coli ESBL4 CTX-M-15; assay type: cell-based; details: fixed 4 μg/mL ceftazidime; CAMHB, 16-20 hours at 37° C.
Description: as §4, §5, §6

[8] = test system: S. aureus MSSA-7 producing penicillinase PC-1; assay: Broth microdilution MIC, S. aureus MSSA-7 PC-1; assay type: cell-based; details: fixed 4 μg/mL piperacillin; CAMHB, 16-20 hours at 37° C.
Description: as §4, §5, §6

[9] = molecular target: T4, KPC-2 β-lactamase (Class A carbapenemase) (Klebsiella pneumoniae, UniProt Q9F663); assay: β-Lactamase inhibition, KPC-2; assay type: biochemical; details: imipenem substrate, 300 nm; 15 min preincubation at 37° C., PBS pH 7.4
T4 construct: made in house; host or cells: E. coli BL21(DE3)
Method: as §1, §2, §3

[10] = test system: E. cloacae 144200 expressing Class C P99 AmpC; assay: Broth microdilution MIC, E. cloacae 144200 p99 AmpC; assay type: cell-based; details: fixed 4 μg/mL ceftazidime; CAMHB, 16-20 hours at 37° C.
Description: as §4, §5, §6

[11] = molecular target: T5, SHV-5 β-lactamase (Class A ESBL) (Klebsiella pneumoniae, UniProt P0A3M1); assay: β-Lactamase inhibition, SHV-5; assay type: biochemical
T5 construct: made in house; host or cells: E. coli BL21(DE3)
Method: as §1, §2, §3

T5 sequence (P0A3M1 22-286): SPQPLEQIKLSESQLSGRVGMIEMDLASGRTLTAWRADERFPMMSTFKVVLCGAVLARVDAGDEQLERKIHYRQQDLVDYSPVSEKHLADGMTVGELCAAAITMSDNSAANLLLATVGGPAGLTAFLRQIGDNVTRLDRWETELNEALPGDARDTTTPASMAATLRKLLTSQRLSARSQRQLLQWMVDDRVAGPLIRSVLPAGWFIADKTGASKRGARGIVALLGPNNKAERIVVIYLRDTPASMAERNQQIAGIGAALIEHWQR
T4 sequence (Q9F663 25-293, looked up): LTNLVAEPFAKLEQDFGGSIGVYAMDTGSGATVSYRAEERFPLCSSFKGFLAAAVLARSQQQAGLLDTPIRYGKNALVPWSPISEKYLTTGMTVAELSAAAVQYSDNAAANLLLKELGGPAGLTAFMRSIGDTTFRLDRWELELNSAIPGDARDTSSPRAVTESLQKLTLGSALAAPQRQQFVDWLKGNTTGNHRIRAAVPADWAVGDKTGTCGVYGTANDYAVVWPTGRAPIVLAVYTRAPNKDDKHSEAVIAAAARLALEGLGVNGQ
T3 sequence (P05364 21-381): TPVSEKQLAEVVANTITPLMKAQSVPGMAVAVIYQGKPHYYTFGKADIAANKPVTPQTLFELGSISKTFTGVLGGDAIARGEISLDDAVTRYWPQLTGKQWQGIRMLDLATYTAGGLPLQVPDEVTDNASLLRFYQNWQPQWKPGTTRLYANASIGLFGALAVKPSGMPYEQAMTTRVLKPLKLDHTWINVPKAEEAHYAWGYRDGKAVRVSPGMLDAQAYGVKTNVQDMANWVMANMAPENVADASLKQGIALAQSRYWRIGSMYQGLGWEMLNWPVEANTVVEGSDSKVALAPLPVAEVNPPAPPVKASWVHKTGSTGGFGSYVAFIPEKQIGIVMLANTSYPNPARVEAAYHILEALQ
T1 sequence (P13661 26-276): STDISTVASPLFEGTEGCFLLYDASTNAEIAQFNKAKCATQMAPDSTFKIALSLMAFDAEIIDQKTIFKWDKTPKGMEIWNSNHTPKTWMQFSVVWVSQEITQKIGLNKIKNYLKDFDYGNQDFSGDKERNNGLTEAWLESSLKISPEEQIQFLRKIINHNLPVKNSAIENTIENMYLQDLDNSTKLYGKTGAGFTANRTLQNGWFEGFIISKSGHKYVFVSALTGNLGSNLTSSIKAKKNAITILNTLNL

SMILES | IC50 [1] [nM] | MIC of example compound in presence of fixed β-lactam: Fixed Mero, P. aerug. Ps296 VIM-2 [2] | IC50 [3] [µM] | IC50 [4] [nM] | MIC of example compound in presence of fixed β-lactam: Fixed Mero, K. P. A-1797 KPC-2 VIM-4 [5] | MIC of example compound in presence of fixed β-lactam: Fixed Mero, K. P. 156319 KPC-3 [6] | MIC of example compound in presence of fixed β-lactam: Fixed CAZ, E. coli ESBL4 CTX-M-15 [7] | MIC of example compound in presence of fixed β-lactam: Fixed Pip, S. aureus MSSA-7 PC-1 [8] | IC50 [9] [nM] | MIC of example compound in presence of fixed β-lactam: Fixed CAZ, E. cl. 144200 p99 AmpC [10] | IC50 [11] [nM]
N[C@@H]1CCN(CC(=O)N[C@H]2Cc3cccc(C(=O)O)c3OB2O)C1 [Example 6, 3-[2-(R-3-Amino-pyrrolidin-1-yl)-acetylamino]-2-hydroxy-3,4-dihydro-2H-benzo[e][1,2]oxaborinine-8-carboxylic acid] | 100 to 1000 | B (the MIC in the presence of between 8 and 32 μg/mL of a β-lactamase inhibitor) | 1 to 10 | < 100 | B (the MIC in the presence of between 8 and 32 μg/mL of a β-lactamase inhibitor) | C (the MIC in the presence of <4 μg/mL of a β-lactamase inhibitor) | C (the MIC in the presence of <4 μg/mL of a β-lactamase inhibitor) | A (an MIC of the fixed β-lactam antibiotic in the presence of >32 μg/mL of a β-lactamase inhibitor) | 100 to 1000 | C (the MIC in the presence of <4 μg/mL of a β-lactamase inhibitor) | < 100
N[C@H]1CCN(CC(=O)N[C@H]2Cc3cccc(C(=O)O)c3OB2O)C1 [Example 7, 3-[2-(S-3-Amino-pyrrolidin-1-yl)-acetylamino]-2-hydroxy-3,4-dihydro-2H-benzo[e][1,2]oxaborinine-8-carboxylic acid] | 100 to 1000 | A (an MIC of the fixed β-lactam antibiotic in the presence of >32 μg/mL of a β-lactamase inhibitor) | 1 to 10 | < 100 | A (an MIC of the fixed β-lactam antibiotic in the presence of >32 μg/mL of a β-lactamase inhibitor) | C (the MIC in the presence of <4 μg/mL of a β-lactamase inhibitor) | C (the MIC in the presence of <4 μg/mL of a β-lactamase inhibitor) | C (the MIC in the presence of <4 μg/mL of a β-lactamase inhibitor) | 100 to 1000 | C (the MIC in the presence of <4 μg/mL of a β-lactamase inhibitor) | < 100
O=C(CN1CCNCC1=O)N[C@H]1Cc2cccc(C(=O)O)c2OB1O [Example 8, 2-Hydroxy-3-[2-(2-oxo-piperazin-1-yl)-acetylamino]-3,4-dihydro-2H-benzo[e][1,2]oxaborinine-8-carboxylic acid] | < 100 | A (an MIC of the fixed β-lactam antibiotic in the presence of >32 μg/mL of a β-lactamase inhibitor) | 1 to 10 | < 100 | A (an MIC of the fixed β-lactam antibiotic in the presence of >32 μg/mL of a β-lactamase inhibitor) | C (the MIC in the presence of <4 μg/mL of a β-lactamase inhibitor) | C (the MIC in the presence of <4 μg/mL of a β-lactamase inhibitor) | C (the MIC in the presence of <4 μg/mL of a β-lactamase inhibitor) | 100 to 1000 | C (the MIC in the presence of <4 μg/mL of a β-lactamase inhibitor) | 10000 to 100000
O=C(CN[C@@H]1CCNC1)N[C@H]1Cc2cccc(C(=O)O)c2OB1O [Example 9, 2-Hydroxy-3-[2-(pyrrolidin-3-ylamino)-acetylamino]-3,4-dihydro-2H-benzo[e][1,2]oxaborinine-8-carboxylic acid] | < 100 | A (an MIC of the fixed β-lactam antibiotic in the presence of >32 μg/mL of a β-lactamase inhibitor) | 10 to 100 | < 100 | A (an MIC of the fixed β-lactam antibiotic in the presence of >32 μg/mL of a β-lactamase inhibitor) | C (the MIC in the presence of <4 μg/mL of a β-lactamase inhibitor) | C (the MIC in the presence of <4 μg/mL of a β-lactamase inhibitor) | C (the MIC in the presence of <4 μg/mL of a β-lactamase inhibitor) | < 100 | C (the MIC in the presence of <4 μg/mL of a β-lactamase inhibitor) | < 100
